The record followed here is patent US7838674B2, “Tetracyclic lactame derivatives” (Novartis AG, priority 2007, dated 2010).

Assay [1] deals with TNF-α release from hPBMCs. Briefly: Assay for inhibition of TNF-α release from hPBMCs (IFNγ/LPS stimulated). The format is cell-based. The note with it: Homo sapiens, IFNγ (10 ng/ml) and LPS (5 μg/ml), 3 h. Here is the method:
Assay for Inhibition of TNF-α Release from hPBMCs
Human peripheral blood mononuclear cells (hPBMCs) are prepared from the peripheral blood of healthy volunteers using Ficoll-Plaque Plus (Amersham) density separation according to the method described within. Cells are seeded at a 1×10^5 cells/well in 96-well plates in RPMI 1640 medium (Invitrogen) containing 10% (v/v) fetal calf serum (FCS). Cells are pre-incubated with serial dilutions of test compound (0.25% v/v DMSO final) for 30 min at 37° C. Cells are stimulated with the addition of IFNγ (10 ng/ml) and lipopolysaccharide(LPS) (5 μg/ml) per well and incubated for 3 h at 37° C. Following a brief centrifugation (250×g for 2 min), supernatant (10 μl) samples are taken from each well and measured against a TNFα calibration curve using a HTRF TNFα kit (CisBio) as described within.
Using the TNF-α release assay described above, compounds of the formula I can be shown to have the following inhibition values: […]

Assay [2] deals with human MK2 (Homo sapiens, UniProt P49137). The experiment in a line: MAPKAPK2 kinase assay (TR-FRET, Hsp27 peptide substrate). A general note: Time-resolved FRET reads energy transfer from a long-lived donor to a nearby acceptor.
The target of assay [3] is T1, MAPKAPK2 enzyme (HIS-MK2, Invitrogen PV4019) (Homo sapiens, UniProt P49137).
T1 construct: His; purchased Invitrogen PV4019
The experiment in a line: Alternative MAPKAPK2 assay (Caliper microfluidic mobility shift, HSP27-peptide). Type of assay: biochemical. The following applies: HIS-MK2 0.013 nM, ATP 10 μM, 60 min at 30° C.

pIC50: −log10 of the molar value. Structures can show the parent of a compound that is named as a salt. A value given as a limit tells only on which side of the number the result lay.

T1 sequence (P49137 whole entry): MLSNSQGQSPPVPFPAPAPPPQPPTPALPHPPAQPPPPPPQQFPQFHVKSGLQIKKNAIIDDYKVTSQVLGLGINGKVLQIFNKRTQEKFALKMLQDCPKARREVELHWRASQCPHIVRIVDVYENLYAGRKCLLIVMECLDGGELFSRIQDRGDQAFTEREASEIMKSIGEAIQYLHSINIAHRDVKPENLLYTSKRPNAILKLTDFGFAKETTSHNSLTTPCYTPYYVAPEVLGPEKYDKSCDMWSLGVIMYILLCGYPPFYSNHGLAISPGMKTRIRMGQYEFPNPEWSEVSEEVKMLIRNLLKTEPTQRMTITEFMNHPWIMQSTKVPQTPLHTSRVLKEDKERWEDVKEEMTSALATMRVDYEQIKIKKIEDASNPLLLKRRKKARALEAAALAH
Chain of human MK2 (P49137 whole entry): as above

For the compound `COCCOc1cncc(-c2cc3c(cn2)CCc2c-3[nH]c3c2C(=O)NCC32CC2)c1` [Example 1, 2-(1-Aminomethyl-cyclopropyl)-8-[5-(2-methoxy-ethoxy)-pyridin-3-yl]-4,5-dihydro-1H-pyrrolo[2,3-f]isoquinoline-3-carboxylic acid lactame], the values for the pIC50 in assay [1] and in assay [2] were 6.49 and 7.33, respectively.

Consider `O=C1NCC2(CNC2)c2[nH]c3c(c21)CCc1cnc(-c2cccc(Cl)c2)cc1-3` [Example 187, 2-[3-Aminomethyl-azetidin-3-yl]-8-(3-chloro-phenyl)-4,5-dihydro-1H-pyrrolo[2,3-f]isoquinoline-3-carboxylic acid lactam hydrochloride], for which the pIC50 in assay [3] is above 8.52; in assay [1], 6.81.

Take `O=C1NCC2(CC2)c2[nH]c3c(c21)CCc1cnc(-c2ccc(CN4CCOCC4)c(F)c2)cc1-3` [Example 301, 2-(3-Fluoro-4-morpholin-4-ylmethyl-phenyl)-10-spirocyclopropyl-5,6,8,9,10,11-exahydro-3,8,11-triaza-benzo[a]fluoren-7-one]: the pIC50 in assay [3] is 7.54; in assay [1], 6.59.

The pIC50 is −log10 of the IC50, conventionally taken in molar units.
